Results published in ChEMBL document CHEMBL4359839, “The Significance of Chirality in Drug Design and Synthesis of Bitopic Ligands as D3 Receptor (D3R) Selective Agonists” (J Med Chem, 2019).
pKi: −log10 of the molar value.

Columns and labels:
Homo sapiens [1] = species: Homo sapiens; assay: Selectivity ratio of Ki for displacement of [3H]-(R)-(+)-7-OH-DPAT from recombinant human D2L receptor expressed in HEK293 cell membranes to Ki for displacement of [3H]-(R)-(+)-7-OH-DPAT from recombinant human D3 receptor expressed in HEK293 cell membranes
Homo sapiens [2] = species: Homo sapiens; assay: Selectivity ratio of Ki for displacement of [3H]-(R)-(+)-7-OH-DPAT from recombinant human D4.4 receptor expressed in HEK293 cell membranes to Ki for displacement of [3H]-(R)-(+)-7-OH-DPAT from recombinant human D3 receptor expressed in HEK293 cell membranes
[3] = Drug level in rat liver microsomes treated with trans-N-(2-(2-(((2S,5S)-2-(6-Aminopyridin-3-yl)-5-methylmorpholino)methyl)cyclopropyl)ethyl)-1H-indole-2-carboxamide assessed as metabolite formation at 10 uM measured after 60 mins in presence of NADPH by LC-HRMS analysis; format: ADME, Microsome
D(2) dopamine receptor = D(2) dopamine receptor (Homo sapiens, UniProt P14416); assay: Displacement of [3H]-(R)-(+)-7-OH-DPAT from recombinant human D2L receptor expressed in HEK293 cell membranes measured after 90 mins by microbeta scintillation counting analysis
D(3) dopamine receptor = D(3) dopamine receptor (Homo sapiens, UniProt P35462); assay: Displacement of [3H]-(R)-(+)-7-OH-DPAT from recombinant human D3 receptor expressed in HEK293 cell membranes measured after 90 mins by microbeta scintillation counting analysis
D(4) dopamine receptor = target: T1, D(4) dopamine receptor (Homo sapiens, UniProt P21917); assay: Displacement of [3H]-(R)-(+)-7-OH-DPAT from recombinant human D4.4 receptor expressed in HEK293 cell membranes measured after 90 mins by microbeta scintillation counting analysis
T1 sequence (P21917 whole entry): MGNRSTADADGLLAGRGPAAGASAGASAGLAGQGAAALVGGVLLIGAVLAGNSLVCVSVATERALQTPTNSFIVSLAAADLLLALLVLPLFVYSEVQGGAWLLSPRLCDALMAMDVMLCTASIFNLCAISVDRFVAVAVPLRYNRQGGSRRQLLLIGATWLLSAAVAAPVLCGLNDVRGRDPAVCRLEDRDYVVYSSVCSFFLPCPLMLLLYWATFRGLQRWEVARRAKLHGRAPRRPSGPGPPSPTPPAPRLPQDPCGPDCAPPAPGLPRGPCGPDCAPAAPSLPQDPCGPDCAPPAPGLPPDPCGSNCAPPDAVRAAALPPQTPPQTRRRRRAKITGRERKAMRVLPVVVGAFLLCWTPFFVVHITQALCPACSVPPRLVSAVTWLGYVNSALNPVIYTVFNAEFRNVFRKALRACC

Chain of D(2) dopamine receptor (P14416 whole entry): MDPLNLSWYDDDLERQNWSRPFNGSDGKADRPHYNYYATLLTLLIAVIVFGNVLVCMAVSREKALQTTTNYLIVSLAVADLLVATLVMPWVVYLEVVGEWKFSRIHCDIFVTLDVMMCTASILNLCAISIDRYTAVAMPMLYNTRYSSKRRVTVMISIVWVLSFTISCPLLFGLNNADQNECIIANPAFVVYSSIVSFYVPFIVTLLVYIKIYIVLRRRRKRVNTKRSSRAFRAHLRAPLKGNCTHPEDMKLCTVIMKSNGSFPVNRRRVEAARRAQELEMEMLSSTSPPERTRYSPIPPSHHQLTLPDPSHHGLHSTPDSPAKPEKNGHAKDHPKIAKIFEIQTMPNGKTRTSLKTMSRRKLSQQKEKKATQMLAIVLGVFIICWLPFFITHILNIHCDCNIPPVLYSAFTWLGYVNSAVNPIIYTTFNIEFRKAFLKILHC
Chain of D(3) dopamine receptor (P35462 whole entry): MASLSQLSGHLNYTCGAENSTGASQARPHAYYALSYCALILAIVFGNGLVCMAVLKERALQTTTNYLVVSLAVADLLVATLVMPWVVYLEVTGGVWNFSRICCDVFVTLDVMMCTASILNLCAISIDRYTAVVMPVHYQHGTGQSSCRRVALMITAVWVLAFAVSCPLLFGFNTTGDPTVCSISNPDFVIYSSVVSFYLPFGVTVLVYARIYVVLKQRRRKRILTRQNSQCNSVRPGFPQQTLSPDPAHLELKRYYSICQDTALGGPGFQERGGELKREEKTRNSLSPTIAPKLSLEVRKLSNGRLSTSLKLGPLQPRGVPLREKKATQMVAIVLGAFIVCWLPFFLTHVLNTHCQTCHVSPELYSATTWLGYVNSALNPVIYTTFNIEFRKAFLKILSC

## CCCN1CCO[C@@H]2c3cc(OCCCCNC(=O)c4ccc5c(c4)Cc4ccccc4-5)ccc3OC[C@H]21
Homo sapiens [1]
  Ratio Ki: 8.33

## C[C@H]1CO[C@@H](c2ccc(N)nc2)CN1CC1CC1CNC(=O)c1cc2ccccc2[nH]1 (stereo in doubt; form 3)
Homo sapiens [1]
  Ratio Ki: 0.498

## C[C@H]1CO[C@@H](c2ccc(N)nc2)CN1C/C=C/COc1ccc2c(c1)NC(=O)CC2
Homo sapiens [1]
  Ratio Ki: 0.297

## CCCN1CCO[C@@H]2c3cc(O)ccc3OC[C@H]21
Homo sapiens [1]
  Ratio Ki: 12.1
Homo sapiens [2]
  Ratio Ki: 15.7

## CCCN1CCO[C@@H]2c3cc(OCCCCNC(=O)c4ccc5scnc5c4)ccc3OC[C@H]21
Homo sapiens [1]
  Ratio Ki: 4.3

## C[C@H]1CO[C@H](c2ccc(N)nc2)CN1CC1CC1CNC(=O)c1cc2ccccc2[nH]1 (mixture of isomers) [listing 1 of 2 here]
Homo sapiens [1]
  Ratio Ki: 0.213

## C[C@H]1CO[C@@H](c2ccc(N)nc2)CN1CCCCOc1ccc2c(c1)NC(=O)CC2
Homo sapiens [1]
  Ratio Ki: 1.11

## C[C@H]1CO[C@H](c2ccc(N)nc2)CN1C/C=C/COc1ccc2c(c1)NC(=O)CC2
Homo sapiens [1]
  Ratio Ki: 0.289

## CCCN1CCO[C@@H]2c3cc(OCCCCNC(=O)c4cc5ccccc5[nH]4)ccc3OC[C@H]21
Homo sapiens [1]
  Ratio Ki: 6.3

## C[C@H]1CO[C@H](c2ccc(N)nc2)CN1CCCCOc1ccc2c(c1)NC(=O)CC2
Homo sapiens [1]
  Ratio Ki: 0.11

## C[C@H]1CO[C@H](c2ccc(N)nc2)CN1CC1CC1CNC(=O)c1cc2ccccc2[nH]1 (stereo in doubt; form 1)
Homo sapiens [1]
  Ratio Ki: 0.431

## C[C@H]1CO[C@@H](c2ccc(N)nc2)CN1CC1CC1CNC(=O)c1cc2ccccc2[nH]1 (stereo in doubt; form 4)
Homo sapiens [1]
  Ratio Ki: 0.435

## CCCN1CC(c2ccc(N)nc2)OC[C@@H]1C (stereo partly specified)
Homo sapiens [1]
  Ratio Ki: 9.41
Homo sapiens [2]
  Ratio Ki: 1.58

## CCCN1CCO[C@@H]2c3cc(OCCCCNC(=O)c4nc5ccccc5s4)ccc3OC[C@H]21
Homo sapiens [1]
  Ratio Ki: 4.14

## C[C@H]1CO[C@@H](c2ccc(N)nc2)CN1
Homo sapiens [1]
  Ratio Ki: 5.52
[3]
  Drug metabolism: Metabolite_Detected

## C[C@H]1COC(c2cnc(N)c(O)c2)CN1CC1CC1CCNC(=O)c1cc2ccccc2[nH]1 (stereo partly specified)
[3]
  Drug metabolism: Metabolite_Detected

## O=C(NCCCCNC1COc2ccc(O)cc2C1=O)c1cc2ccccc2[nH]1 (stereo in doubt; 19a)
Homo sapiens [1]
  Ratio Ki: 0.71

## O=C1CCc2ccc(OCCCCN3CCO[C@@H]4c5cc(O)ccc5OC[C@H]43)cc2N1
Homo sapiens [1]
  Ratio Ki: 0.554

## CC1=COC(c2ccc(N)nc2)CN1CC1CC1CCNC(=O)c1cc2ccccc2[nH]1 (stereo unspecified)
[3]
  Drug metabolism: Metabolite_Detected

## C[C@H]1CO[C@H](c2ccc(N)nc2)CN1CC1CC1CNC(=O)c1cc2ccccc2[nH]1 (stereo in doubt; form 2)
Homo sapiens [1]
  Ratio Ki: 0.235

## CCCN1CCO[C@@H]2c3cc(OCCCCOc4ccc5c(c4)NC(=O)CC5)ccc3OC[C@H]21
Homo sapiens [1]
  Ratio Ki: 6.35

## C[C@H]1COC(c2ccc(N)nc2)CN1CCCCOc1ccc2c(c1)NC(=O)CC2 (stereo partly specified)
Homo sapiens [1]
  Ratio Ki: 0.653
Homo sapiens [2]
  Ratio Ki: 18.6

## C[C@H]1CO[C@@H](c2ccc(N)nc2)CN1CC1CC1CNC(=O)c1cc2ccccc2[nH]1 (stereo in doubt; form 1)
Homo sapiens [1]
  Ratio Ki: 0.182

## C[C@H]1CO[C@H](c2ccc(N)nc2)CN1CC1CC1CNC(=O)c1cc2ccccc2[nH]1 (mixture of isomers) [listing 2 of 2 here]
D(2) dopamine receptor
  pKi: 4.85
D(3) dopamine receptor
  pKi: 4.18

## CCCN1CCO[C@@H]2c3cc(OCCCCNC(=O)c4cc5cccnc5[nH]4)ccc3OC[C@H]21
Homo sapiens [1]
  Ratio Ki: 3.12

## CCCN(CCC)c1ccc(C2CN(CCC)[C@@H](C)CO2)cn1 (stereo partly specified)
Homo sapiens [1]
  Ratio Ki: 0.391
D(4) dopamine receptor
  pKi: < 4.00

## C[C@H]1CO[C@@H](c2ccc(N)nc2)CN1CC1CC1CNC(=O)c1cc2ccccc2[nH]1 (stereo in doubt; form 2)
Homo sapiens [1]
  Ratio Ki: 1.75

## CCCN1CCO[C@@H]2c3cc(OCCCCN4C(=O)c5ccccc5C4=O)ccc3OC[C@H]21
Homo sapiens [1]
  Ratio Ki: 2.11

## Oc1ccc2c(c1)[C@H]1OCCN[C@@H]1CO2
Homo sapiens [1]
  Ratio Ki: 10.5

## CCc1cc(Cl)c(OC)c(N2CCN(CCCCOc3ccc4c(c3)NC(=O)CC4)CC2)c1
D(2) dopamine receptor
  pKi: 8.73
Homo sapiens [1]
  Ratio Ki: 0.0455
D(3) dopamine receptor
  pKi: 7.39

## C[C@H]1CO[C@H](c2ccc(N)nc2)CN1
Homo sapiens [1]
  Ratio Ki: 4.67

## CCCN1CCO[C@@H]2c3cc(OCCCCNC(=O)c4cc5ccccc5o4)ccc3OC[C@H]21
Homo sapiens [1]
  Ratio Ki: 1.57

## O=C(NCCCCNC1COc2ccc(O)cc2C1=O)c1cc2ccccc2[nH]1 (stereo in doubt; 19b)
Homo sapiens [1]
  Ratio Ki: 0.808
